Columns and labels:
Test in all cases: relative viability (nuclei count vs DMSO), 5 days (fraction); higher = more cells survive
EKVX = system: EKVX
Outline: (§1)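 Relative viability is defined as nuclei in treated wells over nuclei in vehicle wells. Duplicate plates were run and medians reported. Lung cancer cell lines in 1536-well plates were dosed by pin tool one day after seeding, with one drug or with a fixed anchor-drug dose plus five library-drug doses (not always all listed) in √10 steps, and nuclei were counted after 5 days.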

EMC-BAC-2 = system: EMC-BAC-2
Outline: as §1

PC-14 = system: PC-14
Outline: as §1

COR-L 105 = system: COR-L 105
Outline: as §1

A-427 = system: A-427
Outline: as §1

BEN = system: BEN
Outline: as §1

SK-MES-1 = system: SK-MES-1
Outline: as §1

HOP-62 = system: HOP-62
Outline: as §1

NCI-H661 = system: NCI-H661
Outline: as §1

NCI-H1915 = system: NCI-H1915
Outline: as §1

201T = system: 201T
Outline: as §1

HCC-78 = system: HCC-78
Outline: as §1

NCI-H1993 = system: NCI-H1993
Outline: as §1

NCI-H647 = system: NCI-H647
Outline: as §1

NCI-H460 = system: NCI-H460
Outline: as §1

NCI-H1563 = system: NCI-H1563
Outline: as §1

LK-2 = system: LK-2
Outline: as §1

COR-L23 = system: COR-L23
Outline: as §1

NCI-H2405 = system: NCI-H2405
Outline: as §1

HCC-366 = system: HCC-366
Outline: as §1

HCC-15 = system: HCC-15
Outline: as §1

NCI-H1734 = system: NCI-H1734
Outline: as §1

Work on CCNC(=O)c1noc(-c2cc(C(C)C)c(O)cc2O)c1-c1ccc(CN2CCOCC2)cc1 [Luminespib] + CS(=O)(=O)N1CCN(Cc2cc3nc(-c4cccc5[nH]ncc45)nc(N4CCOCC4)c3s2)CC1 [Pictilisib] (partner 1 µM) yielded a relative viability (EKVX; first compound 0.002 µM) of 0.392, a relative viability (EKVX; first compound 0.006325 µM) of 0.46 and a relative viability (EKVX; first compound 0.02 µM) of 0.229. For the same compound, the relative viability (EKVX; first compound 0.06325 µM) was 0.226, the relative viability (EKVX; first compound 0.2 µM) was 0.0934 and the relative viability (EMC-BAC-2; first compound 0.002 µM) was 0.54. It also gave a relative viability (EMC-BAC-2; first compound 0.006325 µM) of 0.511, a relative viability (EMC-BAC-2; first compound 0.02 µM) of 0.417 and a relative viability (EMC-BAC-2; first compound 0.06325 µM) of 0.573. For the same compound, the relative viability (EMC-BAC-2; first compound 0.2 µM) was 0.163, the relative viability (PC-14; first compound 0.002 µM) was 0.698 and the relative viability (PC-14; first compound 0.006325 µM) was 0.588. The relative viability (PC-14; first compound 0.02 µM) was 0.194, the relative viability (PC-14; first compound 0.06325 µM) was 0.0484 and the relative viability (PC-14; first compound 0.2 µM) was 0.0383. It also gave a relative viability (COR-L 105; first compound 0.002 µM) of 0.386, a relative viability (COR-L 105; first compound 0.006325 µM) of 0.488 and a relative viability (COR-L 105; first compound 0.02 µM) of 0.248. It also gave a relative viability (COR-L 105; first compound 0.06325 µM) of 0.223, a relative viability (COR-L 105; first compound 0.2 µM) of 0.254 and a relative viability (A-427; first compound 0.002 µM) of 0.62. It also gave a relative viability (A-427; first compound 0.006325 µM) of 0.634, a relative viability (A-427; first compound 0.02 µM) of 0.441 and a relative viability (A-427; first compound 0.06325 µM) of 0.733. For the same compound, the relative viability (A-427; first compound 0.2 µM) was 0.35, the relative viability (BEN; first compound 0.002 µM) was 0.514 and the relative viability (BEN; first compound 0.006325 µM) was 0.597. It also gave a relative viability (BEN; first compound 0.02 µM) of 0.332, a relative viability (BEN; first compound 0.06325 µM) of 0.266 and a relative viability (BEN; first compound 0.2 µM) of 0.191. For the same compound, the relative viability (SK-MES-1; first compound 0.002 µM) was 0.36, the relative viability (SK-MES-1; first compound 0.006325 µM) was 0.418 and the relative viability (SK-MES-1; first compound 0.02 µM) was 0.271. It also gave a relative viability (SK-MES-1; first compound 0.06325 µM) of 0.114, a relative viability (SK-MES-1; first compound 0.2 µM) of 0.106 and a relative viability (HOP-62; first compound 0.002 µM) of 0.678. For the same compound, the relative viability (HOP-62; first compound 0.006325 µM) was 0.838, the relative viability (HOP-62; first compound 0.02 µM) was 0.43 and the relative viability (HOP-62; first compound 0.06325 µM) was 0.164. The relative viability (HOP-62; first compound 0.2 µM) was 0.0784, the relative viability (NCI-H661; first compound 0.002 µM) was 0.357 and the relative viability (NCI-H661; first compound 0.006325 µM) was 0.344. For the same compound, the relative viability (NCI-H661; first compound 0.02 µM) was 0.287, the relative viability (NCI-H661; first compound 0.06325 µM) was 0.276 and the relative viability (NCI-H661; first compound 0.2 µM) was 0.223. The relative viability (NCI-H1915; first compound 0.002 µM) was 0.939, the relative viability (NCI-H1915; first compound 0.006325 µM) was 0.729 and the relative viability (NCI-H1915; first compound 0.02 µM) was 0.567. For the same compound, the relative viability (NCI-H1915; first compound 0.06325 µM) was 0.827, the relative viability (NCI-H1915; first compound 0.2 µM) was 0.062 and the relative viability (201T; first compound 0.002 µM) was 0.647. It also gave a relative viability (201T; first compound 0.006325 µM) of 0.693, a relative viability (201T; first compound 0.02 µM) of 0.649 and a relative viability (201T; first compound 0.06325 µM) of 0.721. It also gave a relative viability (201T; first compound 0.2 µM) of 0.58, a relative viability (HCC-78; first compound 0.002 µM) of 0.204 and a relative viability (HCC-78; first compound 0.06325 µM) of 0.267. For the same compound, the relative viability (HCC-78; first compound 0.2 µM) was 0.279, the relative viability (NCI-H1993; first compound 0.002 µM) was 0.85 and the relative viability (NCI-H1993; first compound 0.006325 µM) was 0.836. For the same compound, the relative viability (NCI-H1993; first compound 0.02 µM) was 0.744, the relative viability (NCI-H1993; first compound 0.06325 µM) was 0.787 and the relative viability (NCI-H1993; first compound 0.2 µM) was 0.643. The relative viability (NCI-H647; first compound 0.002 µM) was 0.511, the relative viability (NCI-H647; first compound 0.006325 µM) was 0.439 and the relative viability (NCI-H647; first compound 0.02 µM) was 0.249. The relative viability (NCI-H647; first compound 0.06325 µM) was 0.0858, the relative viability (NCI-H647; first compound 0.2 µM) was 0.0845 and the relative viability (NCI-H460; first compound 0.002 µM) was 0.35. The relative viability (NCI-H460; first compound 0.006325 µM) was 0.243, the relative viability (NCI-H460; first compound 0.02 µM) was 0.372 and the relative viability (NCI-H460; first compound 0.06325 µM) was 0.116. For the same compound, the relative viability (NCI-H460; first compound 0.2 µM) was 0.0892, the relative viability (NCI-H1563; first compound 0.002 µM) was 0.721 and the relative viability (NCI-H1563; first compound 0.006325 µM) was 0.605. The relative viability (NCI-H1563; first compound 0.02 µM) was 0.616, the relative viability (NCI-H1563; first compound 0.06325 µM) was 0.525 and the relative viability (NCI-H1563; first compound 0.2 µM) was 0.551. It also gave a relative viability (LK-2; first compound 0.002 µM) of 0.569, a relative viability (LK-2; first compound 0.006325 µM) of 0.548 and a relative viability (LK-2; first compound 0.02 µM) of 0.373. It also gave a relative viability (LK-2; first compound 0.06325 µM) of 0.312, a relative viability (LK-2; first compound 0.2 µM) of 0.218 and a relative viability (COR-L23; first compound 0.002 µM) of 0.856. For the same compound, the relative viability (COR-L23; first compound 0.006325 µM) was 0.633, the relative viability (COR-L23; first compound 0.02 µM) was 0.368 and the relative viability (COR-L23; first compound 0.06325 µM) was 0.0587. For the same compound, the relative viability (COR-L23; first compound 0.2 µM) was 0.0601, the relative viability (NCI-H2405; first compound 0.002 µM) was 0.514 and the relative viability (NCI-H2405; first compound 0.006325 µM) was 0.298. It also gave a relative viability (NCI-H2405; first compound 0.02 µM) of 0.301, a relative viability (NCI-H2405; first compound 0.06325 µM) of 0.147 and a relative viability (NCI-H2405; first compound 0.2 µM) of 0.142. The relative viability (HCC-366; first compound 0.002 µM) was 0.159, the relative viability (HCC-366; first compound 0.006325 µM) was 0.156 and the relative viability (HCC-366; first compound 0.02 µM) was 0.116. It also gave a relative viability (HCC-366; first compound 0.06325 µM) of 0.0429, a relative viability (HCC-366; first compound 0.2 µM) of 0.0407 and a relative viability (HCC-15; first compound 0.002 µM) of 0.724. The relative viability (HCC-15; first compound 0.006325 µM) was 0.644, the relative viability (HCC-15; first compound 0.02 µM) was 0.623 and the relative viability (HCC-15; first compound 0.06325 µM) was 0.413. For the same compound, the relative viability (HCC-15; first compound 0.2 µM) was 0.157, the relative viability (NCI-H1734; first compound 0.002 µM) was 0.519 and the relative viability (NCI-H1734; first compound 0.006325 µM) was 0.43. It also gave a relative viability (NCI-H1734; first compound 0.02 µM) of 0.329, a relative viability (NCI-H1734; first compound 0.06325 µM) of 0.14 and a relative viability (NCI-H1734; first compound 0.2 µM) of 0.146.

— the supplement of paper PMC10307832
